From ChEMBL document CHEMBL1629655, “Affinity of Tomopenem (CS-023) for penicillin-binding proteins in Staphylococcus aureus, Escherichia coli, and Pseudomonas aeruginosa” (Antimicrob Agents Chemother, 2009)
In brackets after ≈: the same amount, converted by molar mass.

Experiments:
Pseudomonas aeruginosa [1] = experiment: Ratio of MIC for Pseudomonas aeruginosa PIR2a to MIC for Pseudomonas aeruginosa ATCC 15692; format: functional
Staphylococcus aureus [2] = experiment: Ratio of MIC for Staphylococcus aureus SRR2a to MIC for Staphylococcus aureus ATCC 6538P; format: functional
[3] = Displacement of [14C]benzylpenicillin from PBP4 in Pseudomonas aeruginosa ATCC 15692
Staphylococcus aureus [4] = experiment: Antibacterial activity against Staphylococcus aureus ATCC 6538P by microdilution method; format: functional, organism-based
Pseudomonas aeruginosa [5] = experiment: Ratio of MIC for Pseudomonas aeruginosa PRR4a to MIC for Pseudomonas aeruginosa ATCC 15692; format: functional
Escherichia coli [6] = experiment: Antibacterial activity against Escherichia coli EIR8a selected at 8 times MIC of imipenem by microdilution method; format: functional
[7] = Displacement of [14C]benzylpenicillin from PBP1B in Escherichia coli NIHJ
Escherichia coli [8] = experiment: Ratio of MIC for Escherichia coli ERR2b to MIC for Escherichia coli NIHJ; format: functional
[9] = Displacement of [14C]benzylpenicillin from PBP 5 in Pseudomonas aeruginosa ATCC 15692
[10] = Displacement of [14C]benzylpenicillin from PBP4 in Staphylococcus aureus ATCC 6538P
Escherichia coli [11] = experiment: Antibacterial activity against Escherichia coli EIR2b selected at 2 times MIC of imipenem by microdilution method; format: functional
Staphylococcus aureus [12] = experiment: Antibacterial activity against Staphylococcus aureus SMR4a […] MIC of meropenem by microdilution method; format: functional
Staphylococcus aureus [13] = experiment: Antibacterial activity against Staphylococcus aureus SMR2a selected at 2 times MIC of meropenem by microdilution method; format: functional
Escherichia coli [14] = experiment: Antibacterial activity against Escherichia coli NIHJ by microdilution method; format: functional, organism-based
Escherichia coli [15] = experiment: Antibacterial activity against Escherichia coli ERR2a selected at 2 times MIC of tomopenem by microdilution method; format: functional
Staphylococcus aureus [16] = experiment: Antibacterial activity against Staphylococcus aureus SIR2a selected at 2 times MIC of imipenem by microdilution method; format: functional
Escherichia coli [17] = experiment: Antibacterial activity against Escherichia coli ERR4a selected at 4 times MIC of tomopenem by microdilution method; format: functional
Escherichia coli [18] = experiment: Antibacterial activity against Escherichia coli EIR2a selected at 2 times MIC of imipenem by microdilution method; format: functional
Pseudomonas aeruginosa [19] = experiment: Antibacterial activity against Pseudomonas aeruginosa PIR2a selected at 2 times MIC of imipenem by microdilution method; format: functional
Escherichia coli [20] = experiment: Ratio of MIC for Escherichia coli ERR4a to MIC for Escherichia coli NIHJ; format: functional
[21] = Displacement of [14C]benzylpenicillin from PBP3 in Escherichia coli NIHJ
[22] = Displacement of [14C]benzylpenicillin from PBP1A in Pseudomonas aeruginosa ATCC 15692
Pseudomonas aeruginosa [23] = experiment: Antibacterial activity against Pseudomonas aeruginosa ATCC 15692 by microdilution method; format: functional, organism-based
[24] = Displacement of [14C]benzylpenicillin from PBP1 in Staphylococcus aureus ATCC 6538P
[25] = Displacement of [14C]benzylpenicillin from PBP2 in Pseudomonas aeruginosa ATCC 15692
Escherichia coli [26] = experiment: Antibacterial activity against Escherichia coli EIR4b selected at 4 times MIC of imipenem by microdilution method; format: functional
Escherichia coli [27] = experiment: Ratio of MIC for Escherichia coli EIR8a to MIC for Escherichia coli NIHJ; format: functional
Staphylococcus aureus [28] = experiment: Ratio of MIC for Staphylococcus aureus SMR2a to MIC for Staphylococcus aureus ATCC 6538P; format: functional
[29] = Displacement of [14C]benzylpenicillin from PBP5 in Escherichia coli NIHJ
Staphylococcus aureus [30] = experiment: Ratio of MIC for Staphylococcus aureus SIR2a selected at 2 times MIC of imipenem to MIC for Staphylococcus aureus ATCC 6538P; format: functional
Escherichia coli [31] = experiment: Ratio of MIC for Escherichia coli EIR2b to MIC for Escherichia coli NIHJ; format: functional
Escherichia coli [32] = experiment: Ratio of MIC for Escherichia coli EMR2a to MIC for Escherichia coli NIHJ; format: functional
Escherichia coli [33] = experiment: Ratio of MIC for Escherichia coli EIR2a to MIC for Escherichia coli NIHJ; format: functional
[34] = Displacement of [14C]benzylpenicillin from PBP4 in Escherichia coli NIHJ
Escherichia coli [35] = experiment: Ratio of MIC for Escherichia coli ERR8a to MIC for Escherichia coli NIHJ; format: functional
Escherichia coli [36] = experiment: Ratio of MIC for Escherichia coli EIR4a to MIC for Escherichia coli NIHJ; format: functional
Escherichia coli [37] = experiment: Ratio of MIC for Escherichia coli ERR2a selected to MIC for Escherichia coli NIHJ; format: functional
[38] = Displacement of [14C]benzylpenicillin from PBP1A in Escherichia coli NIHJ
Staphylococcus aureus [39] = experiment: Antibacterial activity against Staphylococcus aureus SRR2a selected at 2 times MIC of tomopenem by microdilution method; format: functional
Pseudomonas aeruginosa [40] = experiment: Antibacterial activity against Pseudomonas aeruginosa PMR2a selected at 2 times MIC of meropenem by microdilution method; format: functional
[41] = Displacement of [14C]benzylpenicillin from PBP2 in Escherichia coli NIHJ
[42] = Displacement of [14C]benzylpenicillin from PBP2 Staphylococcus aureus ATCC 6538P
Escherichia coli [43] = experiment: Antibacterial activity against Escherichia coli ERR2b selected at 2 times MIC of tomopenem by microdilution method; format: functional
Staphylococcus aureus [44] = experiment: Ratio of MIC for Staphylococcus aureus SMR4a to MIC for Staphylococcus aureus ATCC 6538P; format: functional
[45] = Displacement of [14C]benzylpenicillin from PBP1B in Pseudomonas aeruginosa ATCC 15692
Pseudomonas aeruginosa [46] = experiment: Ratio of MIC for Pseudomonas aeruginosa PMR2a to MIC for Pseudomonas aeruginosa ATCC 15692; format: functional
Escherichia coli [47] = experiment: Ratio of MIC for Escherichia coli EIR4b to MIC for Escherichia coli NIHJ; format: functional
Escherichia coli [48] = experiment: Antibacterial activity against Escherichia coli EIR4a selected at 4 times MIC of imipenem by microdilution method; format: functional
Escherichia coli [49] = experiment: Antibacterial activity against Escherichia coli EMR2a selected at 2 times MIC of meropenem by microdilution method; format: functional
[50] = Displacement of [14C]benzylpenicillin from PBP6 Escherichia coli NIHJ
Pseudomonas aeruginosa [51] = experiment: Antibacterial activity against Pseudomonas aeruginosa PRR4a selected at 4 times MIC of tomopenem by microdilution method; format: functional
Escherichia coli [52] = experiment: Antibacterial activity against Escherichia coli ERR8a selected at 8 times MIC of tomopenem by microdilution method; format: functional
[53] = Displacement of [14C]benzylpenicillin from PBP 6 in Pseudomonas aeruginosa ATCC 15692
[54] = Displacement of [14C]benzylpenicillin from PBP3 in Staphylococcus aureus ATCC 6538P
[55] = Displacement of [14C]benzylpenicillin from PBP3 in Pseudomonas aeruginosa ATCC 15692

C[C@@H](O)[C@H]1C(=O)N2C(C(=O)O)=C(SCCNC=N)C[C@H]12 [IMIPENEM ANHYDROUS]
Ratio MIC (Pseudomonas aeruginosa [1]): 16
Ratio MIC (Staphylococcus aureus [2]): 4
IC50 [3]: 0.0032 µg/mL (≈ 0.0107 µM)
IC50 (Staphylococcus aureus [4]): 0.008 µg/mL (≈ 0.0267 µM)
MBC (Staphylococcus aureus [4]): 0.008 µg/mL (≈ 0.0267 µM)
MIC (Staphylococcus aureus [4]): 0.008 µg/mL (≈ 0.0267 µM)
Ratio MIC (Pseudomonas aeruginosa [5]): 8
MIC (Escherichia coli [6]): 0.5 µg/mL
IC50 [7]: 1.1 µg/mL (≈ 3.67 µM)
Ratio MIC (Escherichia coli [8]): 4
IC50 [9]: 0.19 µg/mL (≈ 0.635 µM)
IC50 [10]: 0.0078 µg/mL (≈ 0.0261 µM)
MIC (Escherichia coli [11]): 0.5 µg/mL
MIC (Staphylococcus aureus [12]): 0.03 µg/mL
MIC (Staphylococcus aureus [13]): 0.03 µg/mL
MBC (Escherichia coli [14]): 0.25 µg/mL (≈ 0.835 µM)
MIC (Escherichia coli [14]): 0.25 µg/mL (≈ 0.835 µM)
MIC (Escherichia coli [15]): 1 µg/mL
MIC (Staphylococcus aureus [16]): 0.03 µg/mL
MIC (Escherichia coli [17]): 1 µg/mL
MIC (Escherichia coli [18]): 1 µg/mL
MIC (Pseudomonas aeruginosa [19]): 16 µg/mL
Ratio MIC (Escherichia coli [20]): 4
IC50 [21]: 19 µg/mL (≈ 63.5 µM)
IC50 [22]: 0.057 µg/mL (≈ 0.19 µM)
MBC (Pseudomonas aeruginosa [23]): 2 µg/mL (≈ 6.68 µM)
MIC (Pseudomonas aeruginosa [23]): 1 µg/mL (≈ 3.34 µM)
IC50 [24]: 0.024 µg/mL (≈ 0.0802 µM)
IC50 [25]: 0.066 µg/mL (≈ 0.22 µM)
MIC (Escherichia coli [26]): 1 µg/mL
Ratio MIC (Escherichia coli [27]): 2
Ratio MIC (Staphylococcus aureus [28]): 4
IC50 [29]: 0.34 µg/mL (≈ 1.14 µM)
Ratio MIC (Staphylococcus aureus [30]): 4
Ratio MIC (Escherichia coli [31]): 2
Ratio MIC (Escherichia coli [32]): 4
Ratio MIC (Escherichia coli [33]): 4
IC50 [34]: 0.44 µg/mL (≈ 1.47 µM)
Ratio MIC (Escherichia coli [35]): 2
Ratio MIC (Escherichia coli [36]): 4
Ratio MIC (Escherichia coli [37]): 4
IC50 [38]: 0.22 µg/mL (≈ 0.735 µM)
MIC (Staphylococcus aureus [39]): 0.03 µg/mL
MIC (Pseudomonas aeruginosa [40]): 16 µg/mL
IC50 [41]: 0.045 µg/mL (≈ 0.15 µM)
IC50 [42]: 0.047 µg/mL (≈ 0.157 µM)
MIC (Escherichia coli [43]): 1 µg/mL
ratio (Staphylococcus aureus [44]): 4
IC50 [45]: 0.078 µg/mL (≈ 0.261 µM)
Ratio MIC (Pseudomonas aeruginosa [46]): 16
Ratio MIC (Escherichia coli [47]): 4
MIC (Escherichia coli [48]): 1 µg/mL
MIC (Escherichia coli [49]): 1 µg/mL
IC50 [50]: 1 µg/mL (≈ 3.34 µM)
MIC (Pseudomonas aeruginosa [51]): 8 µg/mL
MIC (Escherichia coli [52]): 0.5 µg/mL
IC50 [53]: 0.19 µg/mL (≈ 0.635 µM)
IC50 [54]: 0.049 µg/mL (≈ 0.164 µM)
IC50 [55]: 0.089 µg/mL (≈ 0.297 µM)

C[C@H]1COc2c(N3CCN(C)CC3)c(F)cc3c(=O)c(C(=O)O)cn1c23.C[C@H]1COc2c(N3CCN(C)CC3)c(F)cc3c(=O)c(C(=O)O)cn1c23.O [LEVOFLOXACIN]
Ratio MIC (Staphylococcus aureus [2]): 2
Ratio MIC (Escherichia coli [8]): 2
MIC (Staphylococcus aureus [12]): 0.06 µg/mL
MIC (Staphylococcus aureus [13]): 0.12 µg/mL
MIC (Staphylococcus aureus [16]): 0.06 µg/mL
MIC (Pseudomonas aeruginosa [19]): 0.5 µg/mL
Ratio MIC (Staphylococcus aureus [28]): 2
Ratio MIC (Staphylococcus aureus [30]): 1
MIC (Staphylococcus aureus [39]): 0.12 µg/mL
ratio (Staphylococcus aureus [44]): 1
